Consider two molecules from US20100304422A1, “In-Vitro Model of the Transformation of Metaplasia to Neoplasia” (priority 2009, published 2010).

Experiment [1] concerns BAR-T cells. The experiment can be described thus: Morphological changes. The format is cell-based, human. The protocol:
Cell line medium and cell culture—BAR-T cells were grown in special supplemented keratinocyte medium (KBM2) from Cambrex Bioscience (East Rutherford, N.J., USA), as per the protocol described by Jaiswal et al. Hydrochloric acid (A) was used to adjust the pH of the culture medium to experimental conditions. The bile acid, glycochenodeoxycholic acid, GCDA (Sigma, St. Louis, […]., USA), was diluted to optimum working concentration of 200 μM (B) with the culture medium adjusted to pH4 (A+B). 0.1×10^6 cells growing on six-well plates were incubated in A or A+B for 5 min in 24 h. For chronic exposure, cells were exposed for 5 min everyday to A only for up to 34 weeks and A+B for up to 84 weeks. No treatment was done on the day the cells were passed. The time was optimized from similar studies, showing that 5 min was sufficient for induction of signal transduction pathways regulating cellular machinery without cell damage. […] Morphological Changes and Growth analysis—BAR-T cells that were exposed to A+B at various weeks were plated at 1×10^5 cells per well in 12 well plates and counted in triplicate using a Beckman Coulter Counter (Vi-CELL1.00). Cells were counted periodically and morphological changes were examined weekly. […] Large (>1 mm) and small colonies (<1 mm) were visually identified, photographed and counted separately. […]

The test system of experiment [2] is BAR-T cells. In words: Real-time RT-PCR mRNA expression, normalized to β actin. The format is cell-based, human. To be noted: for molecular changes (mRNA), particularly transformation marker TC22: A alone (pH4) up to 34 weeks. The protocol: Cell line medium and cell culture—BAR-T cells were grown in special supplemented keratinocyte medium (KBM2) from Cambrex Bioscience (East Rutherford, N.J., USA), as per the protocol described by Jaiswal et al. Hydrochloric acid (A) was used to adjust the pH of the culture medium to experimental conditions. The bile acid, glycochenodeoxycholic acid, GCDA (Sigma, St. Louis, […]., USA), was diluted to optimum working concentration of 200 μM (B) with the culture medium adjusted to pH4 (A+B). 0.1×10^6 cells growing on six-well plates were incubated in A or A+B for 5 min in 24 h. For chronic exposure, cells were exposed for 5 min everyday to A only for up to 34 weeks and A+B for up to 84 weeks. No treatment was done on the day the cells were passed. The time was optimized from similar studies, showing that 5 min was sufficient for induction of signal transduction pathways regulating cellular machinery without cell damage. The cells were rinsed with phosphate buffered saline (PBS) before and after incubation with desired treatment medium. The control untreated cells were grown in parallel in the special medium as mentioned above at pH7.4. A portion of the cells were harvested every 4-6 weeks. Morphological Changes and Growth analysis—BAR-T cells that were exposed to A+B at various weeks were plated at 1×10^5 cells per well in 12 well plates and counted in triplicate using a Beckman Coulter Counter (Vi-CELL1.00). Cells were counted periodically and morphological changes were examined weekly. Foci assay: Cells were plated at 5×10^5 cells per 100 mm dishes (35). Untreated cells grown in parallel were also plated. Cells were grown for 4-5 weeks with regular medium changes beyond 100% confluency, fixed with 10% methanol, 10% acetic acid solution, and stained with 20% ethanol, 0.4% crystal violet for 5 min. Growth in soft agar: Each well of the six well plates was layered with base agar layer containing 0.8% agar in grown medium. […] Large (>1 mm) and small colonies (<1 mm) were visually identified, photographed and counted separately. […]

Turning to `CC(CCC(=O)NCC(=O)O)C1CCC2C3C(O)CC4CC(O)CCC4(C)C3CCC12C` (centres unmarked) [B, glycochenodeoxycholic acid, reference compound], the “effect on BAR-T cells” value with BAR-T cells [1] (B alone up to 6 weeks, initial study) is reported as “no appreciable effect”.

On to `Cl` [A, Hydrochloric acid], for which the morphological changes entry with BAR-T cells [1] (chronic exposure to A alone, up to 34 weeks) is “did not show any morphological changes”. Moreover, the “molecular changes (mRNA), particularly transformation marker TC22” value in the experiment on BAR-T cells [2] is reported as “did not show the above molecular changes”; in the experiment with BAR-T cells [2] (listed as Acid (pH4)), “remained mostly unchanged”. In addition, the P53 expression entry with BAR-T cells [2] (A alone up to 34 weeks) is given as “minor increase”.
